Reference: publication PMC4501791, “Molecular Design, Synthesis and Trypanocidal Activity of Dipeptidyl Nitriles as Cruzain Inhibitors” (PLoS Neglected Tropical Diseases, 2015)
Like-named read-outs stand apart in the source and are kept apart here.

Key:
[1] = system: T. cruzi CL-Brener strain amastigotes; experiment: Trypanocidal activity against amastigote forms in LLCMK2 cells, CL-Brener strain; format: cell-based; conditions: Trypanosoma cruzi, LLC-MK2, 120 h, amastigote lysis, 5 days, read-out: %cell lysis at 32 μM ama Brener
Protocol: (§1) The assays against amastigote forms were performed in LLCMK2 cells. Previously, the cells were cultivated in 96-wells microplates (10^3 cells/well). […] After this, the microplates were incubated at 37°C, in CO2 atmosphere, for 5 days. Then, 10 μL of FluoReporter lacZ/Galactosidase Quantitative Kit (Life Technologies) were added and after 30 minutes the fluorometric reaction was read in a microplate reader (Synergy H1, Biotek) at 386 nm excitation and 448 nm emission. For both assays the percentage of parasite lysis was determined from the following formula: %lysis = 100 –{[(X-PC)/(PC-NC)]x100}, where the optical density values of the samples (X), the positive controls (PC) and negative controls (NC) were used. Culture medium was used as positive control (PC) and medium with 0.6% DMSO (v/v) as negative control (NC). All assays were performed in triplicate with two independent experiments.

[2] = system: LLCMK2 cells; experiment: Lysis of LLCMK2 host cells; format: cell-based; conditions: Macaca mulatta, LLC-MK2, 32 μM, read-out: %cell lysis at 32 μM LLCMK2
[3] = Lysis of LLCMK2 host cells; format: cell-based; conditions: rhesus monkey, footnote of Table 3, cell line not stated
[4] = system: T. cruzi Tulahuen strain amastigotes; experiment: Trypanocidal activity against amastigote forms in LLCMK2 cells, Tulahuen strain; format: cell-based; conditions: Trypanosoma cruzi; for killing at 32 µM: LLC-MK2, 120 h, amastigote lysis, 5 days, read-out: %cell lysis at 32 μM ama Tula; for EC50: LLC-MK2
Protocol: as §1

[5] = system: Balb-c 3T3 clone A31 cells; experiment: MTT cytotoxicity assay using mouse fibroblast cells; format: cell-based; conditions: 250 μM, Balb-c 3T3 cells, MTT, 24, 48 and 72 h, benznidazole as control
Protocol: All compounds were subjected to the MTT colorimetric assay using Balb-c 3T3 clone A31 cells (mouse fibroblast cells) acquired from the Rio de Janeiro Cell Bank (BCRJ code 0047). Inhibition values were determined in the cell-based assay as previously described. Briefly, cells were cultured at 37°C in an atmosphere of 5% CO2 using DMEM medium (Cultilab, Campinas-SP, Brazil) supplemented with 3.5 g glucose (Sigma-Aldrich), 1% penicillin/streptomycin solution and 10% FBS (Cultilab). Cells were plated at a concentration of 10^5 cell/mL in 96-well plates and incubated for 24 h. All compounds were freshly diluted from 50 mM DMSO stock solutions to obtain the final concentration of 250 μM and added to each well by replacing the medium. The cell viability was assessed during 24, 48 and 72 h using the MTT (Sigma-Aldrich) reagent, with an incubation time of 3 h. […] The readout was obtained using Biotek Synergy HT plate reader at 570 nm. Benznidazole was used as control. This assay was done in quatruplicate in two independent experiments. Statistical analyses were made in GraphPad Prism 5. Dunnett’s multiple comparison tests were performed using benznidazole as the standard compound for the ordinary ANOVA analysis using 95% confidence interval.

[6] = target: T1, cruzain (Trypanosoma cruzi, UniProt P25779); experiment: biochemical; conditions: 37°C, pH 5.5, substrate Z-FR-AMC;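 note: fluorometric read-out of substrate hydrolysis at excitation 355 nm and emission 460 nm, initial rates over 5 min, Ki from nonlinear kinetic fits, duplicate runs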
T1 construct: made in house
T1 sequence (P25779 123-337 limits assumed): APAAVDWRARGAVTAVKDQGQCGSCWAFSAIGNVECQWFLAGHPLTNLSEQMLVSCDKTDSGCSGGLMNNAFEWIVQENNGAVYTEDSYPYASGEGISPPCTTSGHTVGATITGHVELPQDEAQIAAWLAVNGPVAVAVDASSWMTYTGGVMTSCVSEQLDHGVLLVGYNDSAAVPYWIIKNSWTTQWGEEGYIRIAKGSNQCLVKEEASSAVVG
Protocol: Enzyme kinetic assays were carried out at 37°C in 200 L of a solution containing 100 mM acetate buffer pH 5.5, 300 mM NaCl, 5 mM DTT (dithiothreitol), 5% v/v DMSO (dimethyl sulfoxide), 0.01% v/v Triton X-100 and 0.15 nM cruzain, using Corning® 96-well black flat bottom microplates. The rate of the reaction was monitored using a Biotek Synergy HT plate reader through the fluorescence emission at 460 nm (excitation at 355 nm) due to the hydrolysis of the substrate Z-Phe-Arg-7-amido-4-methylcoumarin (Z-FR-AMC, Sigma-Aldrich). The enzyme stock aliquot was rapidly thawed at 37°C and kept on ice until activation, in which it was incubated for 20 min. in the assay buffer (100 mM acetate pH 5.5 and 5 mM DTT) followed by additional 2 min. incubation with inhibitors before the reaction was started by the addition of the substrate.
Visual inspection and a pre-reading of plate wells were performed to check for possible precipitation and background fluorescence, respectively. Fluorescence emission spectra were also recorded for all inhibitors, using the same excitation wavelength (355 nm) as for the fluorometric assay. […] The reaction was started by the addition of varying concentrations of the substrate and the wells monitored for a total of 5 minutes of reaction. The initial velocities of the substrate hydrolysis under first-order reaction were calculated by Gen5 Biotek software based on the linear-regression coefficient from the fit to data of Relative Fluorescence Unit (mRFU) as a function of time (min).
Each experiment was performed in duplicates for each compound being tested. […] All inhibitors were evaluated in two different concentrations, which were chosen based on a previous screening (percentage of inhibition) at 1.7 μM substrate (~K M). […] SigmaPlot (v. 10.0) was employed for the non-linear fit and the kinetic parameters determination.

[7] = amastigote, T. cruzi Tulahuen strain, read-out: pEC50 ama Tula (converted)

Compound: O=C(Cn1ccnc1[N+](=O)[O-])NCc1ccccc1 [Benznidazole, reference compound]
- killing at 32 µM [1]: 29 ± 2%
- cytotoxicity at 32 µM [2]: 31 ± 2%
- CC50 at 5 days [3]: 353 µM
- killing at 32 µM ([4]; T. cruzi Tulahuen strain): 78 ± 3%
- EC50 [4, 7]: 1.58 µM

Compound: N#CCNC(=O)[C@H](Cc1c[nH]c2ccccc12)NC(=O)c1ccccc1 [Compound 12, (2S)-N-(cyanomethyl)-3-(1H-indol-3-yl)-2-(phenylformamido)propanamide]
- cytotoxicity [5]: same range of cytotoxicity when compared to benznidazole
- killing at 32 µM [1]: 17 ± 1%
- cytotoxicity at 32 µM [2]: 34 ± 5%
- Ki [6]: 0.398 µM
- killing at 32 µM ([4]; T. cruzi Tulahuen strain): 60 ± 5%
- EC50 ([4]; against the parasite (amastigote, Tulahuen strain), read-out: EC50): 28 µM
- EC50 [4, 7]: 25.1 µM
- melting point: 158 to 159 °C
